Measurements published in US20160039852A1, “THERAPEUTIC USES OF BISPHOSPHONATES” (THE UNIVERSITY OF SHEFFIELD, priority 2013, published 2016).

Legend:
unprenylated RAP1A = test: Unprenylation (unprenylated RAP1A) in murine tissues following treatment; format: in vivo, C57BL6/J mice; details: Zol 125 μg/kg, i.p., 3 days, n=6 mice/group
Experimental: For in vivo murine experiments C57BL6/J mice aged 8-10 weeks were used. All animals were housed in a conventional, non- specific pathogen free (SPF), mouse facility at the Medical School, University of Sheffield. Mice were fed on a commercially prepared pelleted diet and given water ad libitum. A minimum of 6 mice were used in each experimental group. Depending on the experimental groups, mice were injected either with Zoledronate(single dose, 125 μg/kg) or PBS ip, and sacrificed for tissue collection 3 days after the injection. Snap-frozen tissues were lysed for protein extraction using a tissue homogenizer and mammalian cell lysis buffer containing phosphatase and protease inhibitors. Protein lysates were run on 12% Tris-glycine gels and assessed for unprenylated RAP1A detected by sc1482 antibody RAP1A (Santacruz, USA) at 1:1000 dilution and GAPDH at 1:10000 dilution as described earlier.

mTOR pathway = test: Western blot of mTOR pathway effectors in osteosarcoma line MG63; format: cell-based, human; details: MG63, Zol (1 μM) for 72 h, n=3
Experimental: (B) A representative example of human mesenchymal stem cells (MSC) and human osteosarcoma cell line MG63 cultured in presence or absence of Zol (1 μM) for 72 h and assessed for the expression of phosphorylated (Ser 473) AKT, AKT, phosphorylated p70S6K p70S6K and GAPDH by western blot;
Protein lysates (50 μg) were diluted in equal volume of 2× Laemmli buffer (Gibco) containing Dithiothreitol (DTT, Sigma,UK). The samples were heated at 95° C. for 5 minutes and loaded on a 12% Tris-glycine gel. After electro-blotting, membranes were blocked with 5% Bovine serum albumin (BSA) in 0.1% Tween 20 in PBS (PBS-T) for detection of glyceraldehyde-3-phosphate dehydrogenase (GAPDH) and 5% dry milk in PBS-T for detection of unprenylated RAP1A (Santacruz Biotechnology, Santa Cruz, USA). […] Detection was carried out using enhanced chemi-luminescence plus ECL reaction kit (GE Healthcare, Buckinghamshire, UK) and quantification of protein expression was carried out using image J software.
To test this, the inventors assessed the phosphorylation state of two effectors downstream of TORC1 and TORC2, p-P70S6K and pAKT (Ser473) respectively (FIG. 7A), in hMSC in presence or absence of Zol. […]

## O=P(O)(O)C(O)(Cn1ccnc1)P(=O)(O)O [Zoledronate]
Unprenylated RAP1A
  levels of Rap1A unprenylation in murine tissues: increased levels of Rap1A unprenylation
mTOR pathway
  p-P70S6K: no significant difference
  pAKT (Ser473): no significant difference
